From US20170136085A1, “TARGETED THERAPEUTICS” (SYNTA PHARMACEUTICALS CORP., priority 2014, published 2017)

Tested on: HER2
Assay: Degradation of HER2 in cells, Method 1 (SDS-PAGE / immunoblot)
Assay type: cell-based
Details: BT-474 cells, 0.5 μM, overnight in DMEM medium
Description: BT-474 cells are treated with 0.5 μM, 2 μM, or 5 μM of 17-AAG (a positive control) or 0.5 μM, 2 μM, or 5 μM of an Hsp90-targeting moiety or conjugate of the invention overnight in DMEM medium. After treatment, each cytoplasmic sample is prepared from 1×10^6 cells by incubation of cell lysis buffer (#9803, Cell Signaling Technology) on ice for 10 minutes. The resulting supernatant used as the cytosol fractions is dissolved with sample buffer for SDS-PAGE and run on a SDS-PAGE gel, blotted onto a nitrocellulose membrane by using semi-dry transfer. Non-specific binding to nitrocellulose is blocked with 5% skim milk in TBS with 0.5% Tween at room temperature for 1 hour, then probed with anti-HER2/ErB2 mAb (rabbit IgG, #2242, Cell Signaling) and anti-Tubulin (T9026, Sigma) as housekeeping control protein. HRP-conjugated goat anti-rabbit IgG (H+L) and HRP-conjugated horse anti-mouse IgG (H+L) are used as secondary Ab (#7074, #7076, Cell Signaling) and LumiGLO reagent, 20× Peroxide (#7003, Cell Signaling) is used for visualization. The Hsp90 client protein HER2 is degraded when cells are treated with Hsp90-targeting moieties or SDC-TRAPs of the invention.

With C=CCNC1=C2C[C@@H](C)C[C@H](OC)[C@H](O)[C@@H](C)/C=C(\C)[C@H](OC(N)=O)[C@@H](OC)/C=C\C=C(/C)C(=O)NC(=CC1=O)C2=O [17-AAG] the “degradation of HER2” value was “partial degradation”.
